The subject of this assay is Plasmodium berghei. In words: Luciferase/luciferin-expressing antifolate-resistant parasites were used to infect a culture of HepG2 cells that were pre-incubated with compounds. Infected hepatocytes emit light due to the luciferase reaction. Assay results are presented as the percent inhibition of light emission compared to control. […]. The assay is classed as functional. As to conditions: sporozoite; for IC90: read-out: LUCIFERASE INFECTION ASSAY - IC90.

From ChEMBL document CHEMBL4483862, “Open-source discovery of chemical leads for next-generation chemoprotective antimalarials” (2018) come the findings set out here.

The term IC50 denotes the midpoint of a concentration-inhibition curve. The IC90 is the concentration at which the effect reaches the 90% level.

In the case of `O=C(NCc1ccc(C(F)(F)F)cc1)Nc1cccc2cnccc12`, the IC90 was greater than 10 µM. The IC50 (HEPG2TOX_HILL_SLOPE 1.51, HEPG2TOX_R_SQUARED 0.691, read-out: LUCIFERASE INFECTION ASSAY - IC50) was greater than 10 µM.

In the case of `Cc1ccccc1/C=N/NC(N)=S`, the IC90 was greater than 17.1 µM. For the same molecule, the 50% inhibitory concentration (IC50) (HEPG2TOX_HILL_SLOPE 1.52, HEPG2TOX_R_SQUARED 0.966, read-out: LUCIFERASE INFECTION ASSAY - IC50) was greater than 17.1 µM.

In the case of `Cc1cccc(N2CCN(C(=O)c3cccc(S(=O)(=O)N4CCc5ccccc5C4)c3)CC2C)c1` (stereo not drawn), the IC90 is greater than 10 µM. Further, the IC50 (HEPG2TOX_HILL_SLOPE 1.53, HEPG2TOX_R_SQUARED 0.865, read-out: LUCIFERASE INFECTION ASSAY - IC50) is greater than 10 µM.

As for `C=C(C)COc1ccc(-c2[nH]nc(C)c2-c2ccc(OC)c(OC)c2)c(O)c1`, the IC90 was 1.84 µM. For the same molecule, for the setting “HEPG2TOX_HILL_SLOPE 1.51, HEPG2TOX_R_SQUARED 0.867, PBLUC_HILL_SLOPE 1.78, PBLUC_R_SQUARED 0.654, read-out: LUCIFERASE INFECTION ASSAY - IC50”, the IC50 was found to be 0.535 µM.

As to `Cc1nc(C(=O)NNC(=O)c2c(-c3c(Cl)cccc3Cl)noc2C)cs1`, the IC90 turned out to be 3.12 µM. Further, the IC50 (HEPG2TOX_HILL_SLOPE 1.49, HEPG2TOX_R_SQUARED 0.872, PBLUC_HILL_SLOPE 12.3, PBLUC_R_SQUARED 0.357, read-out: LUCIFERASE INFECTION ASSAY - IC50) came out at 2.61 µM.

Regarding `Cc1ccc(-n2c(C)cc(C(=O)Cn3nc(C)c(C)c(C#N)c3=O)c2C)cc1C`, the IC90 was greater than 10 µM. Besides, under “HEPG2TOX_HILL_SLOPE 1.5, HEPG2TOX_R_SQUARED 0.806, PBLUC_HILL_SLOPE 3.65, PBLUC_R_SQUARED 0.115, read-out: LUCIFERASE INFECTION ASSAY - IC50”, the IC50 worked out at 9.8 µM.

For `Clc1ccc(-c2cn3c(-c4ccc5c(c4)OCO5)cnc3cn2)cc1`, the IC90 is 6.85 µM. The IC50 (HEPG2TOX_HILL_SLOPE 1.51, HEPG2TOX_R_SQUARED 0.989, PBLUC_HILL_SLOPE 1.79, PBLUC_R_SQUARED 0.647, read-out: LUCIFERASE INFECTION ASSAY - IC50) was 2.01 µM.

For `Cc1cccc(NC(=O)CSc2nc3ccccc3c3nc(C)nn23)c1`, the IC90 came out at 0.789 µM. Also, the IC50 (HEPG2TOX_HILL_SLOPE 1.51, HEPG2TOX_R_SQUARED 0.99, PBLUC_HILL_SLOPE 1.83, PBLUC_R_SQUARED 0.897, read-out: LUCIFERASE INFECTION ASSAY - IC50) came to 0.237 µM.

As for `CCn1c2ccccc2c2nnc(SCC(=O)c3cc(C)n(C)c3C)nc21`, the IC90 was greater than 10 µM. Also, under “HEPG2TOX_HILL_SLOPE 1.47, HEPG2TOX_R_SQUARED 0.958, read-out: LUCIFERASE INFECTION ASSAY - IC50”, the IC50 was greater than 10 µM.

Turning to `COc1cncc(-c2cnc3sc(NCC4CCOCC4)nn23)c1`, the IC90 was 1.51 µM. The IC50 (HEPG2TOX_HILL_SLOPE 1.52, HEPG2TOX_R_SQUARED 0.935, PBLUC_HILL_SLOPE 11.6, PBLUC_R_SQUARED 0.526, read-out: LUCIFERASE INFECTION ASSAY - IC50) is 1.25 µM.

For the molecule `CC(=O)Nc1cccc(Nc2nccc3[nH]c(-c4ccccc4)cc23)c1`, the IC90 is 0.748 µM. Besides, the IC50 (HEPG2TOX_HILL_SLOPE 1.53, HEPG2TOX_R_SQUARED 0.824, PBLUC_HILL_SLOPE 2.66, PBLUC_R_SQUARED 0.657, read-out: LUCIFERASE INFECTION ASSAY - IC50) worked out at 0.328 µM.

With `Brc1ccc(-[n+]2nc(-c3ccccc3)nn2-c2nn[nH]n2)cc1`, the IC90 was determined as 4.45 µM. Also, the IC50 (HEPG2TOX_HILL_SLOPE 1.48, HEPG2TOX_R_SQUARED 0.648, PBLUC_HILL_SLOPE 2.42, 13.8, PBLUC_R_SQUARED 0.208, 0.342, read-out: LUCIFERASE INFECTION ASSAY - IC50) amounted to 2.56 µM.

As to `Cc1ccc(Cn2nc(C)c(/C=C/C(=O)N3CCN(S(=O)(=O)c4cccs4)CC3)c2C)cc1`, the IC90 was greater than 10 µM. Also, the IC50 (HEPG2TOX_HILL_SLOPE 1.48, HEPG2TOX_R_SQUARED 0.941, PBLUC_HILL_SLOPE 12.2, PBLUC_R_SQUARED 0.462, read-out: LUCIFERASE INFECTION ASSAY - IC50) was found to be 9.53 µM.

As to `Cc1ccc(/N=C/c2c(-c3ccccc3Cl)[nH]c3ccccc23)cc1C`, the IC90 came to 4.13 µM. Also, the IC50 (HEPG2TOX_HILL_SLOPE 1.53, HEPG2TOX_R_SQUARED 0.955, PBLUC_HILL_SLOPE 2.45, PBLUC_R_SQUARED 0.607, read-out: LUCIFERASE INFECTION ASSAY - IC50) was determined as 1.68 µM.

As for `COc1cc(/C=C/C(=O)Oc2c(Cl)cc(Cl)c3ccc(C)nc23)cc(OC)c1OC`, the IC90 was 3.54 µM. The IC50 (HEPG2TOX_HILL_SLOPE 1.48, HEPG2TOX_R_SQUARED 0.88, PBLUC_HILL_SLOPE 12.1, PBLUC_R_SQUARED 0.667, read-out: LUCIFERASE INFECTION ASSAY - IC50) was determined as 2.95 µM.

Regarding `CC(C)NC(=O)c1c(NC(=O)c2cccc(C#N)c2)nc2ccccn12`, the 90% effect concentration (IC90) turned out to be 7.68 µM. Besides, under “HEPG2TOX_HILL_SLOPE 1.47, HEPG2TOX_R_SQUARED 0.952, PBLUC_HILL_SLOPE 19.2, PBLUC_R_SQUARED 0.401, read-out: LUCIFERASE INFECTION ASSAY - IC50”, the IC50 stood at 6.85 µM.

Regarding `N#C/C(=N\Nc1ccc(Cl)cc1)C(=O)c1ccc(Cl)cc1`, the IC90 came to 2.91 µM. The IC50 (HEPG2TOX_HILL_SLOPE 1.51, HEPG2TOX_R_SQUARED 0.876, PBLUC_HILL_SLOPE 2.05, PBLUC_R_SQUARED 0.674, read-out: LUCIFERASE INFECTION ASSAY - IC50) was 0.996 µM.

Consider `COc1ccc(-[n+]2c(C)cn3c2CCc2ccccc2-3)cc1`, for which the IC90 stood at 3.96 µM. Also, the IC50 (HEPG2TOX_HILL_SLOPE 1.53, HEPG2TOX_R_SQUARED 0.982, PBLUC_HILL_SLOPE 13.1, PBLUC_R_SQUARED 0.299, read-out: LUCIFERASE INFECTION ASSAY - IC50) came out at 3.35 µM.

Regarding `Cc1cc(C(=O)Cn2c(CO)nc3ccccc32)c(C)n1-c1ccccc1`, the IC90 was greater than 10 µM. The IC50 (HEPG2TOX_HILL_SLOPE 1.51, HEPG2TOX_R_SQUARED 0.587, PBLUC_HILL_SLOPE 1.38, 1.35, PBLUC_R_SQUARED 0.541, 0.883, read-out: LUCIFERASE INFECTION ASSAY - IC50) was determined as 3.87 µM.

As for `O=C(NC1CCN(c2ccc(S(=O)(=O)C(F)(F)F)cc2)CC1)C1CC1`, the IC90 was found to be 2.59 µM. Moreover, under “HEPG2TOX_HILL_SLOPE 1.52, HEPG2TOX_R_SQUARED 0.775, PBLUC_HILL_SLOPE 1.87, PBLUC_R_SQUARED 0.699, read-out: LUCIFERASE INFECTION ASSAY - IC50”, the IC50 was 0.799 µM.

For `N#C/C(=N\Nc1cccc(Cl)c1)C(=O)c1cc(-c2ccccc2)c(C(F)(F)F)s1`, the IC90 came out at 1.5 µM. For the same molecule, the IC50 (HEPG2TOX_HILL_SLOPE 1.47, HEPG2TOX_R_SQUARED 0.986, PBLUC_HILL_SLOPE 2.41, PBLUC_R_SQUARED 0.872, read-out: LUCIFERASE INFECTION ASSAY - IC50) came to 0.605 µM.

Take `Fc1cccc(-c2cn3c(-c4ccc5ncccc5c4)cnc3cn2)c1`: the IC90 was found to be 0.986 µM. Besides, the IC50 (HEPG2TOX_HILL_SLOPE 1.51, HEPG2TOX_R_SQUARED 0.947, PBLUC_HILL_SLOPE 2.49, PBLUC_R_SQUARED 0.764, read-out: LUCIFERASE INFECTION ASSAY - IC50) was found to be 0.408 µM.

Take `Cc1ccc(CNc2ncnc3sccc23)cc1`: the IC90 is greater than 10 µM. Also, for the setting “HEPG2TOX_HILL_SLOPE 1.53, HEPG2TOX_R_SQUARED 0.949, PBLUC_HILL_SLOPE 1.13, PBLUC_R_SQUARED 0.759, read-out: LUCIFERASE INFECTION ASSAY - IC50”, the IC50 stood at 3.63 µM.

Take `CCCn1c(SCC(=O)N(C)C(C)c2nc3ccccc3s2)nc2sc3c(c2c1=O)CCC3` (stereo not drawn): the IC90 was 3.37 µM. Under “HEPG2TOX_HILL_SLOPE 1.5, HEPG2TOX_R_SQUARED 0.705, PBLUC_HILL_SLOPE 172, PBLUC_R_SQUARED 0.534, read-out: LUCIFERASE INFECTION ASSAY - IC50”, the IC50 stood at 3.33 µM.

Turning to `CCC(=O)c1cn(S(=O)(=O)c2ccc(C)cc2)c2ccccc12`, the IC90 was 3.32 µM. Further, the IC50 (HEPG2TOX_HILL_SLOPE 1.47, HEPG2TOX_R_SQUARED 0.948, PBLUC_HILL_SLOPE 16.3, PBLUC_R_SQUARED 0.746, read-out: LUCIFERASE INFECTION ASSAY - IC50) amounted to 2.9 µM.

For the molecule `Nc1c(C(=O)c2ccccc2)sc(Nc2ccccc2)c1C(=O)Nc1ccc(SC(F)F)cc1`, the IC90 was found to be 1.28 µM. Besides, the IC50 (HEPG2TOX_HILL_SLOPE 1.49, HEPG2TOX_R_SQUARED 0.921, PBLUC_HILL_SLOPE 11.4, PBLUC_R_SQUARED 0.694, read-out: LUCIFERASE INFECTION ASSAY - IC50) was 1.05 µM.

`COc1cc(CNC(=O)Nc2nc3ccccc3s2)cc(OC)c1OC`: the IC90 is greater than 10 µM. In addition, for the setting “HEPG2TOX_HILL_SLOPE 1.53, HEPG2TOX_R_SQUARED 0.847, PBLUC_HILL_SLOPE 0.688, PBLUC_R_SQUARED 0.648, read-out: LUCIFERASE INFECTION ASSAY - IC50”, the IC50 turned out to be 0.692 µM.

In the case of `Cc1nnsc1C(=O)Nc1cc(C(F)(F)F)cc(C(F)(F)F)c1`, the IC90 stood at 1.4 µM. The IC50 (HEPG2TOX_HILL_SLOPE 1.48, HEPG2TOX_R_SQUARED 0.897, PBLUC_HILL_SLOPE 8.57, PBLUC_R_SQUARED 0.681, read-out: LUCIFERASE INFECTION ASSAY - IC50) amounted to 1.08 µM.

Regarding `CCc1ccc(NC(=O)COc2c(Cl)cc(Cl)c3ccc(C)nc23)cc1`, the IC90 was determined as 1.31 µM. Also, under “HEPG2TOX_HILL_SLOPE 1.5, HEPG2TOX_R_SQUARED 0.996, PBLUC_HILL_SLOPE 3.18, PBLUC_R_SQUARED 0.331, read-out: LUCIFERASE INFECTION ASSAY - IC50”, the IC50 is 0.657 µM.
